According to patent US20050186274A1, “Multilayer tablet” (Boehringer Ingelheim International GmbH, priority 2004, published 2005):

What was measured:
[1] = Dissolution rate of HCTZ from tablet matrix; assay type: physicochemical; conditions: from a dissolving matrix as compared with dissolution from a disintegrating tablet
[2] = physiological pH range of the gastrointestinal tract, pH 1 to 7; free acid form; cited from earlier work

dissolution rate of HCTZ [1] | SMILES | solubility in aqueous systems [2]
reduced dissolution rate | NS(=O)(=O)c1cc2c(cc1Cl)NCNS2(=O)=O [HCTZ, 6-chloro-3,4-dihydro-2H-1,2,4-benzothiadiazine-7-sulfonamide-1,1-dioxide] | 
 | CCCc1nc2c(C)cc(-c3nc4ccccc4n3C)cc2n1Cc1ccc(-c2ccccc2C(=O)O)cc1 [Telmisartan, 4′-[2-n-propyl-4-methyl-6-(1-methylbenzimidazol-2-yl)-benzimidazol-1-ylmethyl]-biphenyl-2-carboxylic acid] | very poor solubility
